The source of these data is patent US8071318B2, “High throughput method and system for screening candidate compounds for activity against target ion channels” (Vertex Pharmaceuticals (San Diego) LLC, priority 2000, dated 2011).

Molecules are shown by their SMILES.

For experiment [1], the system named is HL5 cells. The experiment is classed as cell-based.
The target in experiment [2] is IRK1 potassium inward rectifier channel (Rattus norvegicus, UniProt Q64273).
The subject of experiment [3] is voltage-activated chloride and potassium channels of wild-type HEK-293 cells.

Chain of IRK1 potassium inward rectifier channel (Q64273 whole entry): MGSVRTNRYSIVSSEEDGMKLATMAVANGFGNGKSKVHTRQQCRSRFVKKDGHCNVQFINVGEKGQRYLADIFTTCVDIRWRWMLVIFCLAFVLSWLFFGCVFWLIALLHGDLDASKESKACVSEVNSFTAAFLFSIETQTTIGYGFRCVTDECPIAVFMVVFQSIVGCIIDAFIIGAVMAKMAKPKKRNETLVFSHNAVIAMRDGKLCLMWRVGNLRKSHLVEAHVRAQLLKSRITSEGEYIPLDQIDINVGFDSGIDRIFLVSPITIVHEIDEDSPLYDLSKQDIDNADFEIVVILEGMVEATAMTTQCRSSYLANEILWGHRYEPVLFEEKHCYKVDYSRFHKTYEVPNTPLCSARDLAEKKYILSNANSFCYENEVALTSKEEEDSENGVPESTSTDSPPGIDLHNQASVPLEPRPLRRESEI

Turning to `NC1=N[C@H](O)[C@H]2[C@H]3O[C@]4(O)O[C@@H]([C@@H](O)[C@@]2(N1)[C@@H]4O)[C@]3(O)CO` [TTX, tetrodotoxin], in experiment [1], the “effect on the sustained signal” value is “unaffected”.

Regarding `[Ba+2].[Cl-].[Cl-]` [barium chloride], in experiment [2], the “voltage change during stimulation with block” value was “no detectable voltage change during stimulation until the field reaches 80 V/cm”.

For the molecule `CC[N+](CC)(CC)CC` [TEA, Tetraethylammonium], the “block of the negative voltage response” value in experiment [3] is listed as “partially blocks the response”.
